Assay results as given in PubChem BioAssay (NCI).
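Cultured in 96-well plates, cells were exposed to test compound for 48 hours across five concentrations. The concentration for full growth arrest is given as TGI.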

Assays:
Assay in all cases: NCI anticancer screen, dose series, 48 h
786-0 renal = system: 786-0 renal
A498 renal = system: A498 renal
A549 NSCLC = system: A549 NSCLC
ACHN renal = system: ACHN renal
CAKI-1 renal = system: CAKI-1 renal
CCRF-CEM leukemia = system: CCRF-CEM leukemia
COLO 205 colon = system: COLO 205 colon
DLD-1 colon = system: DLD-1 colon
DMS 114 small cell lung = system: DMS 114 small cell lung
DMS 273 small cell lung = system: DMS 273 small cell lung
EKVX NSCLC = system: EKVX NSCLC
HCC-2998 colon = system: HCC-2998 colon
HCT-116 colon = system: HCT-116 colon
HCT-15 colon = system: HCT-15 colon
HL-60(TB) leukemia = system: HL-60(TB) leukemia
HOP-18 NSCLC = system: HOP-18 NSCLC
HOP-62 NSCLC = system: HOP-62 NSCLC
HOP-92 NSCLC = system: HOP-92 NSCLC
HT29 colon = system: HT29 colon
IGROV1 ovarian = system: IGROV1 ovarian
K-562 leukemia = system: K-562 leukemia
KM12 colon = system: KM12 colon
KM20L2 colon = system: KM20L2 colon
LOX IMVI melanoma = system: LOX IMVI melanoma
LXFL 529 NSCLC = system: LXFL 529 NSCLC
M14 melanoma = system: M14 melanoma
M19-MEL melanoma = system: M19-MEL melanoma
MALME-3M melanoma = system: MALME-3M melanoma
MOLT-4 leukemia = system: MOLT-4 leukemia
NCI-H226 lung = system: NCI-H226 lung
NCI-H23 lung = system: NCI-H23 lung
NCI-H460 lung = system: NCI-H460 lung
NCI-H522 lung = system: NCI-H522 lung
OVCAR-3 ovarian = system: OVCAR-3 ovarian
OVCAR-4 ovarian = system: OVCAR-4 ovarian
OVCAR-5 ovarian = system: OVCAR-5 ovarian
OVCAR-8 ovarian = system: OVCAR-8 ovarian
RPMI-8226 leukemia = system: RPMI-8226 leukemia
RXF 393 renal = system: RXF 393 renal
RXF-631 renal = system: RXF-631 renal
SF-268 CNS = system: SF-268 CNS
SF-295 CNS = system: SF-295 CNS
SF-539 CNS = system: SF-539 CNS
SK-MEL-2 melanoma = system: SK-MEL-2 melanoma
SK-MEL-28 melanoma = system: SK-MEL-28 melanoma
SK-MEL-5 melanoma = system: SK-MEL-5 melanoma
SK-OV-3 ovarian = system: SK-OV-3 ovarian
SN12C renal = system: SN12C renal
SNB-19 CNS = system: SNB-19 CNS
SNB-75 CNS = system: SNB-75 CNS
SNB-78 CNS = system: SNB-78 CNS
SR leukemia = system: SR leukemia
SW-620 colon = system: SW-620 colon
TK-10 renal = system: TK-10 renal
U251 CNS = system: U251 CNS
UACC-257 melanoma = system: UACC-257 melanoma
UACC-62 melanoma = system: UACC-62 melanoma
UO-31 renal = system: UO-31 renal
XF 498 CNS = system: XF 498 CNS

Molecule `COC(=O)CCC(=O)Nc1ccc(Cl)cc1C` has a TGI (786-0 renal) of over 100 µM, a TGI (A498 renal) of over 79 µM and a TGI (A549 NSCLC) of over 100 µM. The TGI (ACHN renal) was over 100 µM, the TGI (CAKI-1 renal) was over 100 µM and the TGI (CCRF-CEM leukemia) was over 100 µM. For the same molecule, the TGI (COLO 205 colon) was over 100 µM, the TGI (DLD-1 colon) was over 100 µM and the TGI (DMS 114 small cell lung) was over 100 µM. For the same molecule, the TGI (DMS 273 small cell lung) was over 100 µM, the TGI (EKVX NSCLC) was over 100 µM and the TGI (HCC-2998 colon) was over 100 µM. The TGI (HCT-116 colon) was over 100 µM, the TGI (HCT-15 colon) was over 100 µM and the TGI (HL-60(TB) leukemia) was 13.6 µM. The TGI (HOP-18 NSCLC) was over 100 µM, the TGI (HOP-62 NSCLC) was over 100 µM and the TGI (HOP-92 NSCLC) was over 100 µM. It also gave a TGI (HT29 colon) of over 100 µM, a TGI (IGROV1 ovarian) of over 100 µM and a TGI (K-562 leukemia) of over 100 µM. The TGI (KM12 colon) was over 100 µM, the TGI (KM20L2 colon) was over 100 µM and the TGI (LOX IMVI melanoma) was over 100 µM. The TGI (LXFL 529 NSCLC) was over 100 µM, the TGI (M14 melanoma) was over 100 µM and the TGI (M19-MEL melanoma) was over 100 µM. The TGI (MALME-3M melanoma) was over 100 µM, the TGI (MOLT-4 leukemia) was over 100 µM and the TGI (NCI-H226 lung) was over 100 µM. The TGI (NCI-H23 lung) was over 100 µM, the TGI (NCI-H460 lung) was over 100 µM and the TGI (NCI-H522 lung) was over 100 µM. It also gave a TGI (OVCAR-3 ovarian) of over 100 µM, a TGI (OVCAR-4 ovarian) of over 100 µM and a TGI (OVCAR-5 ovarian) of over 100 µM. It also gave a TGI (OVCAR-8 ovarian) of over 100 µM, a TGI (RPMI-8226 leukemia) of over 100 µM and a TGI (RXF 393 renal) of over 100 µM. The TGI (RXF-631 renal) was over 100 µM, the TGI (SF-268 CNS) was over 100 µM and the TGI (SF-295 CNS) was over 100 µM. The TGI (SF-539 CNS) was over 100 µM, the TGI (SK-MEL-2 melanoma) was over 100 µM and the TGI (SK-MEL-28 melanoma) was over 100 µM. The TGI (SK-MEL-5 melanoma) was over 100 µM, the TGI (SK-OV-3 ovarian) was over 100 µM and the TGI (SN12C renal) was over 100 µM. The TGI (SNB-19 CNS) was over 100 µM, the TGI (SNB-75 CNS) was over 100 µM and the TGI (SNB-78 CNS) was over 100 µM. It also gave a TGI (SR leukemia) of over 100 µM, a TGI (SW-620 colon) of over 100 µM and a TGI (TK-10 renal) of over 100 µM. The TGI (U251 CNS) was over 100 µM, the TGI (UACC-257 melanoma) was over 100 µM and the TGI (UACC-62 melanoma) was over 100 µM. For the same molecule, the TGI (UO-31 renal) was over 100 µM and the TGI (XF 498 CNS) was over 100 µM.

`COC(=O)C1=CO[C@@H](C)[C@@H]2Cn3ccc4c5ccccc5nc-4c3C[C@H]12` showed a TGI (786-0 renal) of over 100 µM, a TGI (A498 renal) of over 100 µM and a TGI (A549 NSCLC) of over 100 µM. It also gave a TGI (ACHN renal) of over 100 µM, a TGI (CCRF-CEM leukemia) of over 100 µM and a TGI (COLO 205 colon) of over 100 µM. The TGI (DLD-1 colon) was over 100 µM, the TGI (DMS 114 small cell lung) was over 100 µM and the TGI (DMS 273 small cell lung) was over 100 µM. The TGI (EKVX NSCLC) was over 100 µM, the TGI (HCT-116 colon) was over 100 µM and the TGI (HCT-15 colon) was over 100 µM. For the same molecule, the TGI (HOP-18 NSCLC) was over 100 µM, the TGI (HOP-62 NSCLC) was over 100 µM and the TGI (HOP-92 NSCLC) was over 100 µM. It also gave a TGI (HT29 colon) of over 100 µM, a TGI (IGROV1 ovarian) of over 100 µM and a TGI (K-562 leukemia) of over 100 µM. The TGI (KM20L2 colon) was over 100 µM, the TGI (LOX IMVI melanoma) was over 100 µM and the TGI (LXFL 529 NSCLC) was over 100 µM. It also gave a TGI (M14 melanoma) of over 100 µM, a TGI (M19-MEL melanoma) of over 100 µM and a TGI (MALME-3M melanoma) of over 100 µM. The TGI (MOLT-4 leukemia) was over 100 µM, the TGI (NCI-H226 lung) was over 100 µM and the TGI (NCI-H23 lung) was over 100 µM. For the same molecule, the TGI (NCI-H460 lung) was over 100 µM, the TGI (NCI-H522 lung) was over 100 µM and the TGI (OVCAR-3 ovarian) was over 100 µM. The TGI (OVCAR-4 ovarian) was over 100 µM, the TGI (OVCAR-5 ovarian) was over 100 µM and the TGI (OVCAR-8 ovarian) was over 100 µM. It also gave a TGI (RPMI-8226 leukemia) of over 100 µM, a TGI (RXF 393 renal) of over 100 µM and a TGI (RXF-631 renal) of over 100 µM. It also gave a TGI (SF-268 CNS) of over 100 µM, a TGI (SF-295 CNS) of over 100 µM and a TGI (SF-539 CNS) of over 100 µM. The TGI (SK-MEL-2 melanoma) was over 100 µM, the TGI (SK-MEL-28 melanoma) was over 100 µM and the TGI (SK-MEL-5 melanoma) was over 100 µM. It also gave a TGI (SK-OV-3 ovarian) of over 100 µM, a TGI (SN12C renal) of over 100 µM and a TGI (SNB-19 CNS) of over 100 µM. It also gave a TGI (SNB-75 CNS) of over 100 µM, a TGI (SNB-78 CNS) of over 100 µM and a TGI (SW-620 colon) of over 100 µM. It also gave a TGI (TK-10 renal) of over 100 µM, a TGI (U251 CNS) of over 100 µM and a TGI (UACC-257 melanoma) of over 100 µM. The TGI (UACC-62 melanoma) was over 100 µM, the TGI (UO-31 renal) was over 100 µM and the TGI (XF 498 CNS) was over 100 µM.
